Measurements from PubChem BioAssay AID248 (DTP/NCI, 2004).
Values joined by “and” are separate entries in the source; they are usually repeats but may differ in a detail not shown here. Equal entries are not always repeated. Inconclusive results and toxic doses are left out. Cut-off read from the data, not from the text of the source: active = T/C of 150% or more; inactive = T/C below 125%.

Test system: L1210 leukemia ip in BDF1 mice, survival T/C
Experiment: NCI In Vivo Anticancer Drug Screen. Data for tumor model L1210 Leukemia (intraperitoneal) in B6D2F1 (BDF1) mice
Conditions: endpoint: mean survival time, higher = longer survival
In short: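 Transplantable tumor model; survival measured in treated vs vehicle control mice. Value = treated/control.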

[1] = dose: 100.0 mg/kg/injection, schedule: Q01DX009 (ip), vehicle: Klucel (hydroxypropylcellulose) (HPC)
[2] = dose: 200.0 mg/kg/injection, schedule: Q01DX009 (ip), vehicle: Klucel (hydroxypropylcellulose) (HPC)
[3] = dose: 400.0 mg/kg/injection, schedule: Q01DX009 (ip), vehicle: Klucel (hydroxypropylcellulose) (HPC)
[4] = dose: 100.0 mg/kg/injection, schedule: Q01DX009 (ip), vehicle: saline with Tween-80
[5] = dose: 200.0 mg/kg/injection, schedule: Q01DX009 (ip), vehicle: saline with Tween-80
[6] = dose: 100.0 mg/kg/injection, schedule: Q04DX002 (ip), vehicle: Klucel (hydroxypropylcellulose) (HPC)
[7] = dose: 200.0 mg/kg/injection, schedule: Q04DX002 (ip), vehicle: Klucel (hydroxypropylcellulose) (HPC)
[8] = dose: 400.0 mg/kg/injection, schedule: Q04DX002 (ip), vehicle: Klucel (hydroxypropylcellulose) (HPC)
[9] = dose: 6.25 mg/kg/injection, schedule: Q01DX009 (ip), vehicle: saline
[10] = dose: 100.0 mg/kg/injection, schedule: Q01DX001 (ip), vehicle: saline
[11] = dose: 200.0 mg/kg/injection, schedule: Q01DX001 (ip), vehicle: saline
[12] = dose: 100.0 mg/kg/injection, schedule: Q01DX009 (ip), vehicle: saline
[13] = dose: 100.0 mg/kg/injection, schedule: Q04DX003 (ip), vehicle: saline
[14] = dose: 200.0 mg/kg/injection, schedule: Q01DX009 (ip), vehicle: saline
[15] = dose: 200.0 mg/kg/injection, schedule: Q04DX003 (ip), vehicle: saline
[16] = dose: 100.0 mg/kg/injection, schedule: Q04DX003 (ip), vehicle: Klucel (hydroxypropylcellulose) (HPC)
[17] = dose: 200.0 mg/kg/injection, schedule: Q04DX003 (ip), vehicle: Klucel (hydroxypropylcellulose) (HPC)
[18] = dose: 400.0 mg/kg/injection, schedule: Q04DX003 (ip), vehicle: Klucel (hydroxypropylcellulose) (HPC)
[19] = dose: 100.0 mg/kg/injection, schedule: Q01DX001 (ip), vehicle: Klucel (hydroxypropylcellulose) (HPC)
[20] = dose: 200.0 mg/kg/injection, schedule: Q01DX001 (ip), vehicle: Klucel (hydroxypropylcellulose) (HPC)

Measured: T/C

COc1ccc(OC)c(NC(=O)Nc2ccc(SC)cc2)c1
inactive: [1] 96 % of control | [2] 90 % of control | [3] 98 % of control

S=c1[nH]sc(=S)[nH]1
inactive: [4] 100 % of control | [5] 98 % of control

O=C(CCl)c1ccc([N+](=O)[O-])o1
inactive: dose: 1.56 mg/kg/injection, schedule: Q01DX001 (ip), vehicle: Klucel (hydroxypropylcellulose) (HPC) 98 % of control | dose: 3.12 mg/kg/injection, schedule: Q01DX001 (ip), vehicle: Klucel (hydroxypropylcellulose) (HPC) 95 % of control | dose: 6.25 mg/kg/injection, schedule: Q01DX001 (ip), vehicle: Klucel (hydroxypropylcellulose) (HPC) 96 % of control

Nc1cc(OCc2ccccc2)cc(OCc2ccccc2)c1
inactive: dose: 25.0 mg/kg/injection, schedule: Q01DX009 (ip), vehicle: water 89 % of control | dose: 50.0 mg/kg/injection, schedule: Q01DX009 (ip), vehicle: water 97 % of control | dose: 100.0 mg/kg/injection, schedule: Q01DX009 (ip), vehicle: water 93 % of control

CCn1cc(C(=O)O)c(=O)c2ccc3ccccc3c21
inactive: [6] 100 % of control | [7] 103 % of control | [8] 100 % of control

CN1C(=O)C2C(N=CN2C)N(C)C1=O (centres undefined)
inactive: [4] 96 % of control | [5] 90 % of control

C=C1CC[N+]2(CCCCCC)CCCC12 (centres undefined)
inactive: [9] 97 % of control | dose: 12.5 mg/kg/injection, schedule: Q01DX009 (ip), vehicle: saline 91 % of control | dose: 25.0 mg/kg/injection, schedule: Q01DX009 (ip), vehicle: saline 103 % of control

Nc1cccc(Nc2cc(S(=O)(=O)O)c(N)c3c2C(=O)c2ccccc2C3=O)c1
inactive: dose: 5.0 mg/kg/injection, schedule: Q01DX001 (ip), vehicle: saline 100 % of control | dose: 10.0 mg/kg/injection, schedule: Q01DX001 (ip), vehicle: saline 94 % of control | dose: 20.0 mg/kg/injection, schedule: Q01DX001 (ip), vehicle: saline 100 % of control | dose: 40.0 mg/kg/injection, schedule: Q01DX001 (ip), vehicle: saline 100 % of control | dose: 80.0 mg/kg/injection, schedule: Q01DX001 (ip), vehicle: saline 103 % of control | [10] 93 % of control | [11] 100 % of control

CC(=O)/C=C(/C(=O)c1ccccc1)c1ccccc1
inactive: dose: 100.0 mg/kg/injection, schedule: Q01DX001 (ip), vehicle: saline with Tween-80 93 % of control | dose: 200.0 mg/kg/injection, schedule: Q01DX001 (ip), vehicle: saline with Tween-80 98 % of control | dose: 400.0 mg/kg/injection, schedule: Q01DX001 (ip), vehicle: saline with Tween-80 97 % of control

CCOC(=O)c1nnn(-c2cccnc2)c1-c1ccc([N+](=O)[O-])cc1
inactive: [6] 111 % of control | [7] 101 % of control | [8] 105 % of control

CN(C)/N=N\c1nc[nH]c1C(=O)NC1CCCCC1
inactive: dose: 10.0 mg/kg/injection, schedule: Q01DX001 (ip), vehicle: saline with Tween-80 100 % of control | dose: 20.0 mg/kg/injection, schedule: Q01DX001 (ip), vehicle: saline with Tween-80 94 % of control | dose: 40.0 mg/kg/injection, schedule: Q01DX001 (ip), vehicle: saline with Tween-80 96 % of control | dose: 75.0 mg/kg/injection, schedule: Q01DX009 (ip), vehicle: saline with Tween-80 98 % of control | dose: 150.0 mg/kg/injection, schedule: Q01DX009 (ip), vehicle: saline with Tween-80 109 % of control | dose: 300.0 mg/kg/injection, schedule: Q01DX009 (ip), vehicle: saline with Tween-80 101 % of control

Nc1cccc2[nH]cnc12
inactive: [12] 98 % of control | [13] 106 % of control | [14] 111 % of control | [15] 104 % of control | dose: 400.0 mg/kg/injection, schedule: Q01DX009 (ip), vehicle: saline 93 % of control | dose: 400.0 mg/kg/injection, schedule: Q04DX003 (ip), vehicle: saline 101 % of control

CCN(CC)CC
inactive: [6] 98 % of control | [7] 109 % of control | [8] 103 % of control

CC1CC(=O)c2cccc(Cl)c2N1C (centres undefined)
inactive: [16] 100 % of control | [17] 100 % of control | [18] 98 % of control

O=P(O)(O)C(Cl)(Cl)Cl
inactive: dose: 50.0 mg/kg/injection, schedule: Q01DX009 (ip), vehicle: saline 100 % of control | [12] 96 % of control | dose: 100.0 mg/kg/injection, schedule: Q04DX002 (ip), vehicle: saline 92 % of control | [14] 96 % of control | dose: 200.0 mg/kg/injection, schedule: Q04DX002 (ip), vehicle: saline 99 % of control

Cc1ccc(SCCN)cc1
inactive: dose: 75.0 mg/kg/injection, schedule: Q01DX001 (ip), vehicle: saline 105 % of control | dose: 150.0 mg/kg/injection, schedule: Q01DX001 (ip), vehicle: saline 96 % of control

O=c1cc(-c2ccccc2)cc(-c2ccccc2)o1
inactive: [1] 102 % of control | [16] 96 % of control | [2] 96 % of control | [17] 100 % of control | [3] 96 % of control | [18] 94 % of control

O=C(NC1CCCCC1)C1COc2ccccc2O1 (centres undefined)
inactive: [19] 98 % of control | [1] 95 % of control | [20] 108 % of control | [2] 93 % of control | dose: 400.0 mg/kg/injection, schedule: Q01DX001 (ip), vehicle: Klucel (hydroxypropylcellulose) (HPC) 98 % of control | [3] 97 % of control

CCOC(=O)Cc1ccc([N+](=O)[O-])cc1
inactive: dose: 25.0 mg/kg/injection, schedule: Q04DX003 (ip), vehicle: Klucel (hydroxypropylcellulose) (HPC) 94 % of control | dose: 50.0 mg/kg/injection, schedule: Q04DX003 (ip), vehicle: Klucel (hydroxypropylcellulose) (HPC) 105 % of control | [16] 104 % of control and 105 % of control | dose: 150.0 mg/kg/injection, schedule: Q04DX003 (ip), vehicle: Klucel (hydroxypropylcellulose) (HPC) 107 % of control | dose: 225.0 mg/kg/injection, schedule: Q04DX003 (ip), vehicle: Klucel (hydroxypropylcellulose) (HPC) 100 % of control

O=C1CCC(=O)N1C1C=CC=CC=C1
inactive: dose: 100.0 mg/kg/injection, schedule: Q04DX003 (ip), vehicle: saline with Tween-80 98 % of control | dose: 200.0 mg/kg/injection, schedule: Q04DX003 (ip), vehicle: saline with Tween-80 97 % of control | dose: 400.0 mg/kg/injection, schedule: Q04DX003 (ip), vehicle: saline with Tween-80 96 % of control

COc1cc2ccc3c(c2cc1OC)C=NCC3
inactive: dose: 1.56 mg/kg/injection, schedule: Q04DX003 (ip), vehicle: saline 107 % of control | dose: 3.13 mg/kg/injection, schedule: Q01DX009 (ip), vehicle: saline 109 % of control | dose: 3.13 mg/kg/injection, schedule: Q04DX003 (ip), vehicle: saline 102 % of control | [9] 105 % of control | dose: 6.25 mg/kg/injection, schedule: Q04DX003 (ip), vehicle: saline 97 % of control | dose: 12.5 mg/kg/injection, schedule: Q04DX003 (ip), vehicle: saline 87 % of control

CC(C)(C)NCc1cc(C(C)(C)C)cc(-c2ccccc2)c1O
inactive: [10] 100 % of control | [13] 97 % of control | [11] 101 % of control | [15] 90 % of control | dose: 400.0 mg/kg/injection, schedule: Q01DX001 (ip), vehicle: saline 99 % of control

CCCCOP(=O)(c1ccccc1)N1CCCCC1 (centres undefined)
inactive: dose: 25.0 mg/kg/injection, schedule: Q04DX002 (ip), vehicle: saline with Tween-80 103 % of control | dose: 50.0 mg/kg/injection, schedule: Q04DX002 (ip), vehicle: saline with Tween-80 103 % of control | dose: 100.0 mg/kg/injection, schedule: Q04DX002 (ip), vehicle: saline with Tween-80 92 % of control and 107 % of control

COc1ccc2c(c1)CCC1C2=CCC2C1C(=O)CCC2(OC)OC (centres undefined)
inactive: dose: 50.0 mg/kg/injection, schedule: Q01DX001 (ip), vehicle: Klucel (hydroxypropylcellulose) (HPC) 98 % of control | [19] 101 % of control | [20] 96 % of control
